According to patent publication US11306064B2, “Benzothia(di)azepine compounds and their use as bile acid modulators” (Albireo AB, priority 2018, dated 2022):

Tests used:
Format in all cases: cell-based
Human LBAT = molecular target: T1, Human LBAT (Homo sapiens, UniProt Q14973); experiment: LBAT (h/m) assay: 3H-taurocholic acid uptake in human LBAT-overexpressing cells; conditions: 0.3 μM 3H-taurocholic acid and 7.5 μM cold taurocholic acid, 20 minutes, read-out: hLBAT IC50
T1 construct: expressed in transfected cells; kept under Geneticin selection
T1 sequence (Q14973 1-349): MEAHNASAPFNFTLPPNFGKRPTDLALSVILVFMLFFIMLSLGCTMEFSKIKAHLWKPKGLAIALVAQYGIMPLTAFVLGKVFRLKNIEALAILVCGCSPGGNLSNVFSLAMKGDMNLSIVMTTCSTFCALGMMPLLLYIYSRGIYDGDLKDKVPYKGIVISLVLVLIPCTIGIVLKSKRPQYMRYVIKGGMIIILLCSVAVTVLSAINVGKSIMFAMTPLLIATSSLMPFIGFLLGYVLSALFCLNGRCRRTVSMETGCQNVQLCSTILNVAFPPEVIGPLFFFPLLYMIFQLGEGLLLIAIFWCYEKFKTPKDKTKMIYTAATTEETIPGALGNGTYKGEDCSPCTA
Procedure: LBAT (h/m) Assay Protocol
20,000 cells (Human or Mouse LBAT-overexpressing cells) were seeded in 96-wells plate (Corning CLS3809) in 100 μL MEM-alpha medium (Gibco 12571-063) supplemented with 10% FBS (Gibco 10438026) containing Geneticin (Gibco 10131-027) (1 mg/mL) and incubated at 37° C. in 5% CO2 for 24 hours. After incubation, media was decanted from the wells and cells were washed two times with 300 μL of basal MEM-alpha medium (FBS-free). After decanting basal MEM-alpha medium each time, plates were tapped against paper towel to ensure maximum removal of residual media. For human LBAT, incubation mix was prepared by adding test inhibitor dilutions (3-fold serial dilution in DMSO (Sigma D2650), 10 points) in MEM-alpha (without FBS) containing 0.3 μM 3H-taurocholic acid (ARC ART-1368) and 7.5 μM cold taurocholic acid (Sigma T4009) (maintaining 0.2% final DMSO concentration). For mouse LBAT, incubation mix was prepared by adding test inhibitor dilutions (3-fold serial dilution in DMSO, 10 points) in MEM-alpha (without FBS) containing 0.3 μM 3H-taurocholic acid and 25 μM cold taurocholic acid maintaining 0.2% final DMSO concentration).
50 μL of incubation mix containing test inhibitors was then added to the wells (in duplicate) and the plates were incubated for 20 minutes in a CO2 incubator at 37° C. After incubation, the reaction was stopped by keeping the plates on ice water mix for 2-3 minutes and then the incubation mix was aspirated completely from the wells. The wells were washed two times with 250 μL of chilled unlabelled 1 mM taurocholic acid dissolved in HEPES (Gibco 15630080)-buffered (10 mM) HBSS (Gibco 14175079) (pH 7.4). The plates were tapped against a paper towel after every wash to ensure maximum removal of blocking buffer.
(§1) 100 μL of MicroScint-20 (PerkinElmer 6013621) was added to the wells and kept overnight at room temperature before reading the plates in TopCount NXT™ Microplate Scintillation and Luminescence Counter from PerkinElmer under 3H Test protocol (set at 120 seconds reading time per well, with normal plate orientation).
(§2) Preparation of Test Compound Dilutions
(§3) All test compounds were provided in powder form at room temperature. 10 mM DMSO stocks of the test compounds were prepared, aliquoted and stored at −20° C. From the 10 mM DMSO stock of the compounds, a 3-fold serial dilution in DMSO was prepared to get a total of 10 dilutions of the test compounds. 0.5 μL of this dilution in DMSO was added to 250 μL of FBS-free basal media containing 3H-taurocholic acid and cold taurocholic acid to prepare the incubation mixture.

HepaRG cells = experiment: HepaRG-based assay: 3H-taurocholic acid uptake in differentiated HepaRG cells; conditions: Homo sapiens, HepaRG, 0.3 μM 3H-taurocholic acid and 7.5 μM cold taurocholic acid, 30 minutes
Procedure: HepaRG-Based Assay Protocol
A cryopreserved vial of differentiated HepaRG cells (Biopredic International HPR116080) was thawed in HepaRG Thawing/Plating/General Purpose Medium (Biopredic International ADD670C) supplemented with 200 mM Glutamax (Gibco 35050061) following the protocol provided by Biopredic International. 70,000 cells per well were seeded in 96-wells plate (Corning CLS3809) in 100 μL of HepaRG Thawing/Plating/General Purpose Medium supplemented with 200 mM Glutamax and incubated at 37° C. in 5% CO2 for 24 hours. Post incubation, the seeding media was replaced by HepaRG Maintenance/Metabolism Medium (Biopredic International ADD620C) and incubated for 6 days, with fresh HepaRG Maintenance/Metabolism Medium replenishment every 48 hours. After 7 days incubation post seeding, incubation media was decanted from the wells and cells were washed two times with 250 μL of William's E Basal Media (Gibco 12551032). After decanting William's E Basal Media each time, plates were tapped against paper towel to ensure maximum removal of residual media.
Incubation mix was prepared by adding test inhibitor dilutions (3-fold serial dilution in DMSO (Sigma D2650)) in William's E media (basal) containing 0.3 μM 3H-taurocholic acid (ARC ART-1368) and 7.5 μM cold taurocholic acid (Sigma T4009) (maintaining 0.2% final DMSO concentration). 50 μl of incubation mix containing test inhibitors was then added to the wells (in duplicate) and the plates were incubated for 30 minutes in 5% CO2 incubator at 37° C. After incubation, the reaction was stopped by keeping the plates on ice water mix for 2-3 minutes and then the incubation mix was aspirated completely from the wells. The wells were washed two times with 250 μL of chilled unlabelled 1 mM taurocholic acid dissolved in HEPES (Gibco 15630080)-buffered (10 mM) HBSS (Gibco 14175079) (pH 7.4). The plates were tapped against a paper towel after every wash to ensure maximum removal of blocking buffer.
as §1, §2, §3

Human ASBT = molecular target: T2, Human ASBT (Homo sapiens, UniProt Q12908); experiment: ASBT (h/m) assay: 3H-taurocholic acid uptake in human ASBT-overexpressing cells; conditions: 0.25 μM 3H-taurocholic acid and 5 μM cold taurocholic acid, 20 minutes, read-out: hASBT IC50
T2 construct: expressed in transfected cells; kept under Puromycin selection
T2 sequence (Q12908 1-348): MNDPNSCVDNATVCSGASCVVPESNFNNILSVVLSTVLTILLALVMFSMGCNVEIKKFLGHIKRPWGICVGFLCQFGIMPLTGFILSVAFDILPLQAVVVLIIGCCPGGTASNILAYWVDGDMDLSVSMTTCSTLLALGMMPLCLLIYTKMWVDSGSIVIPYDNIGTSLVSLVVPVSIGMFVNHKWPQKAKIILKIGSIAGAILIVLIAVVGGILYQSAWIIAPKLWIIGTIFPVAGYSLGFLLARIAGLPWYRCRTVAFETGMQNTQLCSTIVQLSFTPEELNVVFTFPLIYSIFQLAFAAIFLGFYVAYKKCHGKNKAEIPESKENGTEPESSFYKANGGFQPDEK
Procedure: ASBT (h/m) Assay Protocol
10,000 cells (Human or Mouse ASBT-overexpressing cells) were seeded in 96-wells plate (Corning CLS3809) in 200 μL MEM-alpha medium (Gibco 12571-063) supplemented with 10% FBS (Gibco 10438026) containing Puromycin (Gibco A1113803) (10 μg/mL) and incubated at 37° C. in 5% CO2 for 48 hours. After incubation, media was decanted from the wells and cells were washed two times with 300 μL of basal MEM-alpha medium (FBS-free). After decanting basal MEM-alpha medium each time, plates were tapped against paper towel to ensure maximum removal of residual media. Test inhibitor dilutions (highest test concentration being 10 μM, 3-fold serial dilution, 10 points) prepared in DMSO (Sigma D2650) were added in incubation mix (maintaining 0.2% final DMSO concentration) containing 0.25 μM 3H-taurocholic acid (ARC ART-1368) and 5 μM of cold taurocholic acid (Sigma T4009). 50 μL of incubation mix containing test inhibitors was then added to the wells (in duplicate) and the plates were incubated for 20 minutes in a CO2 incubator at 37° C. After incubation, the reaction was stopped by keeping the plates on ice water mix for 2-3 minutes and then the incubation mix was aspirated completely from the wells. The wells were washed two times with 250 μL of chilled unlabelled 1 mM taurocholic acid dissolved in HEPES (Gibco 15630080)-buffered (10 mM) HBSS (Gibco 14175079) (pH 7.4). The plates were tapped against a paper towel after every wash to ensure maximum removal of blocking buffer.
100 μL of MicroScint-20 (PerkinElmer 6013621) was added to the wells and kept overnight at room temperature before reading the plates in TopCount NXT™ Microplate Scintillation and Luminescence Counter from PerkinElmer under 3H Test protocol (set at 120 seconds reading time per well).
as §2, §3

IC50 (Human LBAT) [nM]	IC50 (Human ASBT) [nM]	SMILES	IC50 (HepaRG cells) [nM]
49		CCCC[C@]1(CC)CN(c2ccccc2)c2cc(SC)c(O/C=C/C(=O)O)cc2S(=O)(=O)N1C (single isomer, unassigned) [Example 90]	1400
343		CCCCC1(CCCC)CN(c2ccc(NCc3ccccc3)cc2)c2cc(SC)c(O/C=C/C(=O)O)cc2S(=O)(=O)C1 [Example 22, (E)-3-((5-(4-(benzylamino)phenyl)-3,3-dibutyl-7-(methylthio)-1,1-dioxido-2,3,4,5-tetrahydro-1,5-benzothiazepin-8-yl)oxy)acrylic Acid]	2140
349	148	CCCCC1(CCCC)CN(c2ccccc2)c2cc(Br)c(O/C=C/C(=O)O)cc2S(=O)(=O)N1 [Example 75, (E)-3-((7-bromo-3,3-dibutyl-1,1-dioxido-5-phenyl-2,3,4,5-tetrahydro-1,2,5-benzothiadiazepin-8-yl)oxy)acrylic Acid]	
828	7.5	CCCCC1(CC)CN(c2ccccc2)c2cc(N(C)C)c(O/C=C/C(=O)O)cc2S(=O)(=O)C1 (stereo not drawn) [Example 80, (E)-3-((3-butyl-7-(dimethylamino)-3-ethyl-1,1-dioxido-5-phenyl-2,3,4,5-tetrahydro-1,5-benzothiazepin-8-yl)oxy)acrylic Acid]	
210	771	CCCCC1(CCCC)CN(c2ccccc2)c2cc(F)c(O/C=C/C(=O)O)cc2S(=O)(=O)C1 [Example 81, (E)-3-((3,3-dibutyl-7-fluoro-1,1-dioxido-5-phenyl-2,3,4,5-tetrahydro-1,5-benzothiazepin-8-yl)oxy)acrylic Acid]	
270	873	CCCCC1(CCCC)CN(c2ccccc2)c2cc(C#N)c(O/C=C/C(=O)O)cc2S(=O)(=O)C1 [Example 82, (E)-3-((3,3-dibutyl-7-cyano-1,1-dioxido-5-phenyl-2,3,4,5-tetrahydro-1,5-benzothiazepin-8-yl)oxy)acrylic Acid]	
4920	18	CCCCC1(CCCC)CN(c2ccccc2)c2cc(SC)c(O/C(C)=C/C(=O)O)cc2S(=O)(=O)N1 [Example 83, (E)-3-((3,3-dibutyl-7-(methylthio)-1,1-dioxido-5-phenyl-2,3,4,5-tetrahydro-1,2,5-benzothiadiazepin-8-yl)oxy)but-2-enoic Acid]	
96	42	CCCCC1(CCCC)CN(c2ccc(Br)cc2)c2cc(SC)c(O/C=C(\F)C(=O)O)cc2S(=O)(=O)C1 [Example 94, (Z)-3-((5-(4-bromophenyl)-3,3-dibutyl-7-(methylthio)-1,1-dioxido-2,3,4,5-tetrahydro-1,5-benzothiazepin-8-yl)oxy)-2-fluoroacrylic Acid]	
341	9	CCCCC1(CCCC)CN(c2ccccc2)c2cc(N(C)C)c(O/C=C(\F)C(=O)O)cc2S(=O)(=O)N1 [Example 97, (Z)-3-((3,3-dibutyl-7-(dimethylamino)-1,1-dioxido-5-phenyl-2,3,4,5-tetrahydro-1,2,5-benzothiadiazepin-8-yl)oxy)-2-fluoroacrylic Acid]	
290	3330	CCCCC1(CCCC)CN(c2ccc(C(=O)N(C)C)cc2)c2cc(SC)c(O/C=C(\F)C(=O)O)cc2S(=O)(=O)C1 [Example 104, (Z)-3-((3,3-dibutyl-5-(4-(dimethylcarbamoyl)phenyl)-7-(methylthio)-1,1-dioxido-2,3,4,5-tetrahydro-1,5-benzothiazepin-8-yl)oxy)-2-fluoroacrylic Acid]	

SMILES	IC50 (Human LBAT) [nM]	IC50 (Human ASBT) [nM]	IC50 (HepaRG cells) [nM]
CCCCC1(CC)CN(c2ccc(NC(=O)OC(C)(C)C)cc2)c2cc(Br)c(O/C=C/C(=O)O)cc2S(=O)(=O)C1 (stereo not drawn) [Example 23, (E)-3-((7-bromo-5-(4-((tert-butoxycarbonyl)amino)phenyl)-3-butyl-3-ethyl-1,1-dioxido-2,3,4,5-tetrahydro-1,5-benzothiazepin-8-yl)oxy)acrylic Acid]	100		1200
CCCCOC(=O)Nc1ccc(N2CC(CCCC)(CCCC)CS(=O)(=O)c3cc(O/C=C/C(=O)O)c(SC)cc32)cc1 [Example 29, (E)-3-((5-(4-((butoxycarbonyl)amino)phenyl)-3,3-dibutyl-7-(methylthio)-1,1-dioxido-2,3,4,5-tetrahydro-1,5-benzothiazepin-8-yl)oxy)acrylic Acid]	205		666
